From patent US10285963B2, “Combination of metabolic bio-energetic and nutra-epigentic regulators, nutraceutical compounds in conventional and nanotechnologies combination to revert and prevent the chronic damage accelerated cellular senescence produced by diabetes and other degenerative chronic complex diseases” (priority 2015, dated 2019)

How the values were obtained:
Artemia salina nauplii = Artemia salina nauplii toxicity assay; details: for toxicity expressed as percent mortality of A. salina nauplii: any of the tested concentrations (62.5-1000 ppm)
Source text: Artemia salina is a crustacean sensitive to a wide range of compounds with biological activity and very different chemical structures. Michael et al. (Michael A. S. et al in Science, 1956, 123: 464) and Vanhaecke et al. (Vanhaecke et al in Ecotoxicol Environ Saf 1981, 5:382) proposed its use for toxicity testing. It is a test that allows conducting practically and economically toxicity studies of different nature substances. […] This model is accepted by the FDA (Food Drug Administration) and EPA (Environmental Protection Agency in 2002), as a test for evaluating the toxicity and ecotoxicity of pharmaceutical and/or food products.
In an Artemia salina hatcher, 0.5 g cysts of Artemia salina were hatched in artificial seawater at 37 g/L at a temperature of 27° C. with constant aeration for 24 h. In every 5 wells out of a 96-well plate, 0.1 mL of artificial seawater (37 g/L) was applied with a single-channel pipette with ten nauplii, separated from the hatcher and counted one by one to achieve an exact separation of 10 nauplii. […] Using a multichannel micropipette, 0.1 mL of the solutions prepared in the plate were added, achieving a final concentration of 62.5, 125, 250, 500 and 1000 ppm per five wells of nauplii. For blank samples, 10 untreated nauplii were placed in a 0.2 mL volume of artificial seawater (37 g/L). The microplate was incubated at 25° C. for 24 h. After incubation period, A. salina nauplii alive and dead were counted with a stereoscopic microscope and % mortality was determined. Toxicity was expressed as percent mortality of A. salina nauplii: 0-10% non-toxic, moderately toxic 11-50%, 51-90% highly toxic and 100% extremely toxic, considering the Gualdron et al, scale. (Gualdron R. et al in Chem Rev. Col. Farm, 1997, 26: 15 to 19). […] Data were analyzed with the Statistical Package Graph Pad Prism version 6, by analysis of variance (ANOVA) test and Tukey multiple comparisons (p<0.05).

[1] = system: human peripheral blood mononuclear cells (lymphocytes) DNA; details: 0.1 mM, positive control, 24 h
Experimental: By using culture medium cell concentration was adjusted to 1×10^6 cells/mL. Cells obtained were seeded in Eppendorf vials at a density of 3×10^4 cells/mL and incubated at 37° C. and 5% CO2 for 24 hours to stabilize. […] Cells were incubated for 24 h to be later precipitated by centrifugation at 1200 rpm for 5 min and treated with 0.1 mL trypsin (0.25%) for 3 min at 37° C. and 5% CO2. Cells were resuspended in 1 mL of RPMI 1640 medium and centrifuged again at 1200 rpm for 5 min, the supernatant was discarded and the cells were incubated with 1 mL of lysis solution (NaCl 2.5 M, Na2EDTA 100 mM, Tris HCl 10 mM, and 1% Triton) at 4° C. for 24 h. After 24 h, vials were centrifuged at 1200 rpm at 4° C. […] The generated images were acquired with a high resolution digital camera (FIG. 4, above) and analyzed with ImageQuant TL v8.1 software. The area of the comet head representing intact DNA was quantified by densitometric analysis and plotted as percentage versus the negative control (culture medium) (FIG. 4, in the middle). The tail of the comet representing the damaged DNA was measured in millimeters and represented as the percentage of the positive control (H2O2). Data were expressed as mean±mean standard deviation (FIG. 4, below). Data obtained were analyzed by analysis of variance (ANOVA) using in case of any difference a post-hoc Tukey test using GraphPad Prism v6.0 software, at p<0.05.

[2] = system: Vero cell line (African green monkey kidney cells); assay: MTT microdilution assay, Vero; assay type: cell-based
Source text: (§1) MTT method, based on reduction of 3-(4,5-dimethylthiazol-2-yl)-2,5-diphenyltetrazolium bromide, is an assay that reflects the metabolic function of cells. MTT is a yellow dye reduced to formazan (blue dye) by mitochondrial dehydrogenases, which are part of the respiratory chain of viable cells (Hwa et al., 2015). It is used in a quantitative colorimetric microdilution method applied for determination of survival and proliferative capacity of mammalian cells (Mosmann T. in J. Immunol Methods, 1983, 65 (1-2): 55). […]
(§2) Dulbecco's modified Eagle Minimum Essential culture Medium/F12 (DMEM/F12) was used, supplemented with 10% fetal bovine serum (FBS) and 1 mL of a mixture of antibiotics (200,000 IU of penicillin and 0.5 g streptomycin). […] Subsequently MTT solution was removed, retaining the formed formazan salts, then they added 0.1 mL of isopropyl alcohol and the absorbance at 540 nm was read in a Synergy HT microplate reader with GEN 5 embedded software. In the calculation of cell viability percentage detected absorbance in wells with cells proliferated in untreated culture medium were considered 100% of living cells. […] Results of data analysis are expressed as the average±standard deviation (FIG. 5).

[3] = system: human embryonic kidney (HEK-293) cell line; assay: MTT microdilution assay, HEK-293; assay type: cell-based
Source text: as §1, §2

[4] = system: peripheral human lymphocytes; assay: Lymphocyte proliferation and viability, trypan blue count; assay type: cell-based; details: positive control 1.25 mg/mL, 48 h
Source text: For the assay, a biological in vitro system using mononuclear cells culture from peripheral blood mononuclear cells—peripheral human lymphocytes was used. The system was selected because they form from 25 to 35% of leukocytes and they are the main immune response promoting cells since they recognize foreign antigens and activate cellular immune response mediators, causing proliferation or suppression phenomena before endogenous or exogenous stimuli. These cultures are widely used in research to evaluate the effects of various compounds (Marti-Centelles R. et al in J. Med Chem Eur, 2015, 103: 488). […] As a positive control the test with concanavalin A (Con A) was performed, which is a globular plant-origin protein that induces mitosis in lymphocytes causing clonal proliferation (Ganem and Martin Gonzalez Baez F A O. in Universo Diagnóstico, 2000, 1 (1):1). Assay with RPMI-1640 (medium without treatment) was performed as blank. […]
Optical light microscope with 40× objective was used. Cells were counted with Neubauer chamber using 0.05 mL suspension of each resuspended samples in 0.4 mL of PBS 1× and 0.05 mL of trypan blue. […] The results were analyzed by the variance analysis test (ANOVA) with SPSS version 16 and then Dunnet's test was applied to discern whether a difference between control and experimental treatments was present, taking values of p<0.05 as significant.

[5] = system: rats with alloxan-induced diabetes; assay: Alloxan-induced diabetes in rats; assay type: in vivo
Experimental: (§3) In all tests carried out on laboratory animals the treatment was orally administered in a weight-dependent measure, through orogastric cannula, after conventional feed consumption for rodents and lagomorphs (Commission of the European Communities in Off. J. Eur. Comm (L 383 A), 1992, 35: 110), respectively.
(§4) Body weight was determined and recorded at the beginning and end of the experiment. Also in case of rabbits, clinical laboratory tests were performed before and after each test: blood biometry, blood chemistry and activity of transaminase enzymes: aspartate aminotransferase (AST), alanine aminotransferase (TGP) and transpeptidase gamma glutamyl transaminase (GGT). In rats, these parameters were determined only at the end of testing to prevent blood loss. Finally, we proceeded with the euthanasia step to animals applying a series of anesthetics and potassium chloride (KCl). Subsequently, an organ and fundamental tissue macroscopic examination and necropsy was conducted, primarily including heart, kidney, spleen, pancreas, lung, liver, ovaries and testicles, according to each case. Samples taken were sent to carry out a histopathological study.
(§5) In addition, the test in rats and rabbits with alloxan-induced diabetes was performed. […] Insulin glargine was administered subcutaneously at a dose of 0.7 U/kg in a single morning administration every 24 h.

[6] = system: rabbits with alloxan-induced diabetes; assay: Alloxan-induced diabetes in rabbits; assay type: in vivo
Experimental: as §3, §4, §5

[7] = positive control, 1.95-2000 ppm

Compound: 3, 5, 4-trihydroxy-trans-stilbene [resveratrol]
- mortality of A. salina nauplii (Artemia salina nauplii; 62.6 ppm solution, 24 h): 38%
- toxicity class (percent mortality scale) (Artemia salina nauplii; 62.6 ppm solution, 24 h): moderate toxicity
- LC50 (lethal concentration to 50% nauplii) (Artemia salina nauplii; 24 h): 89.48 ppm
- toxicity class (percent mortality scale) (Artemia salina nauplii; from the LC50 concentration (89.48 ppm)): highly toxic (51-90% highly toxic)

Compound: NCC(=O)O [Glycine, glycine]
- toxicity expressed as percent mortality of A. salina nauplii (Artemia salina nauplii; 24 h): toxicity free

Compound: N=C(N)NCCC[C@H](N)C(=O)O [arginine]
- toxicity expressed as percent mortality of A. salina nauplii (Artemia salina nauplii; 24 h): toxicity free

Compound: OO [hydrogen peroxide]
- DNA damage (genotoxicity) [1]: much more rapid dsDNA diffusion

Compound: Triton X-100
- LC50 ([2]; Vero, MTT, 24 h): 42.80±1.60 ppm
- effect on absorbance/viability [2, 7]: dose-depending effect
- LC50 ([3]; HEK-293, MTT, 24 h): 764.10±21.93 ppm
- effect on absorbance/viability [3, 7]: dose-depending effect

Compound: concanavalin A
- increase in the number of cells [4]: 65%
- number of cells [4]: 9,101,667 cells/mL

Compound: insulin
- capillary glucose ([5]; diabetic rats treated only with insulin, up to 19 days): increase in the tendency for capillary glucose
- weight change ([5]; diabetic rats, pure insulin, compared to other groups): tendency of weight loss decrease is much more visible
- macroscopic pancreatic alterations at autopsy ([5]; diabetic rats, single treatment only): most severe pancreatic alterations
- kidney histology ([6]; diabetic female rabbit treated only with insulin): early diabetic nephropathy
- pancreas histology ([6]; diabetic female rabbit treated only with the named treatment): complete destruction of the organ
- kidney histology, tubular component ([6]; diabetic male rabbit treated only with insulin): changes by coagulative necrosis and nuclei pyknosis
- macroscopic pancreatic alterations at autopsy ([6]; diabetic rabbits, single treatment only): most severe pancreatic alterations
